Experimental data as given in publication PMC10993450, “New benzimidazole derivative compounds with in vitro fasciolicidal properties” (Parasites & Vectors, 2024).
Where “and” joins values, the source holds several entries; their conditions need not be identical. Equal values may be shown once. Read-outs that look alike come from different tables or passages of the source.

How the values were obtained:
[1] = system: Fasciola hepatica eggs (ABZ-susceptible isolate); test: Egg hatch test (EHT), ABZ-susceptible isolates; assay type: cell-based; conditions: ABZ-susceptible isolate
Procedure: Eggs were recovered from gallbladders of cattle naturally infected with F. hepatica at the municipal slaughterhouse of León (Spain). For this, the bile of the gallbladders was filtered through sieves of different diameter size pores (500, 150, and 20 µm) using pressurized tap water. Eggs retained on the 20 µm pore size sieve were collected and stored at 4 °C in darkness until required within a maximum period of 2 months.
The susceptibility of the isolates to ABZ was confirmed by the egg hatch test (EHT) using an ABZ discriminant dose (DD) of 0.5 µM [23]. The technique is described in more detail below.
The in vitro anthelmintic activity of a total of 70 BZDs was initially tested on F. hepatica eggs recovered from gallbladders of cattle naturally infected with ABZ-susceptible isolates. The first screening was performed using a fixed concentration of 50 µM. […] Therefore, only BZDs with ovicidal activities over 80% progressed to the next assays at 10 µM. […] At this last concentration, the ovicidal effect of ABZ, ABZSO, and OXF was also evaluated.
(§1) The in vitro EHT described in the current study was based on previous studies. Briefly, 100–120 eggs were incubated in 990 µL of water and 10 μL of each working solution at 25 °C in the dark for a period of 12 h. After incubation, eggs were gently washed with tap water three times to facilitate compound removal and kept in darkness at 25 °C for 14 days. After this period, eggs were exposed to light for 2 h to stimulate the hatching of eggs. Then, hatched and unhatched eggs were evaluated and counted using an optical microscope. The term “hatched eggs” includes both hatched and embryonated eggs. Negative control eggs were incubated with 10 μL of DMSO in 990 μL of water, reaching a maximum DMSO concentration of 1% (v/v), while ABZ at 0.5 µM was used as positive control. Each compound at a specific concentration was tested in triplicate in the same EHT and repeated at least two different days.
With the aim to characterize the susceptibility of isolates from naturally infected cattle, the drug used in the EHT was ABZ, tested at a discriminant dose of 0.5 μM. Drug susceptibility is assumed when the ovicidal activity is over 70%, resistance when is lower than 40%, and a suspicion of resistance when activity is between these values at 0.5 μM.
(§2) The efficacy of each compound and drug was calculated as its ovicidal activity following the formula below: Ovicidal activity%=100×%eggs hatched in negative control-%egg hatched after drug incubation/%egg hatched in control.

[2] = system: Fasciola hepatica (resistant isolate); test: In vivo efficacy of ABZ in sheep infected with the resistant isolate (worm count, FECRT); conditions: ABZ 7.5 mg/kg
Description: F. hepatica eggs were recovered after washing the gallbladder of three naturally infected sheep belonging to a flock suspected to be resistant to ABZ. From these eggs, metacercariae were produced at the Centro de Investigaciones de Mabegondo (AGACAL, Xunta de Galicia, Spain) following a previous protocol. These metacercariae were used to infect eight sheep with a dose of 200 metacercariae. The infection was confirmed individually 3 months after the infection by coprological analysis using a sedimentation technique. At that point, sheep were randomly located in two groups of four animals: one treated with a therapeutic dose of ABZ (7.5 mg/kg) and the other one only with water, as control group. […] Afterwards, the in vivo efficacy of ABZ was calculated as the percentage of adult worm reduction compared with the untreated control. […]
The percentage of in vivo efficacy of ABZ and the FECRT were calculated using the following formulas, respectively: %of Worm Reduction=100×Mean of adult worms in control group-Mean of adult worms in treated group/Mean of adult worms in control group. %FECRT=100×Arithmetic mean EPG day0-Arithmetic mean EPG day 14/Arithmetic mean EPG day0.

[3] = system: Fasciola hepatica eggs (ABZ-resistant isolate); test: Egg hatch test (EHT), ABZ-resistant isolate; assay type: cell-based; conditions: ABZ at discriminant dose (DD) 0.5 µM
Description: F. hepatica eggs were recovered after washing the gallbladder of three naturally infected sheep belonging to a flock suspected to be resistant to ABZ. From these eggs, metacercariae were produced at the Centro de Investigaciones de Mabegondo (AGACAL, Xunta de Galicia, Spain) following a previous protocol. These metacercariae were used to infect eight sheep with a dose of 200 metacercariae. The infection was confirmed individually 3 months after the infection by coprological analysis using a sedimentation technique. At that point, sheep were randomly located in two groups of four animals: one treated with a therapeutic dose of ABZ (7.5 mg/kg) and the other one only with water, as control group. To assess the efficacy of ABZ in this isolate, all sheep were humanely euthanized by an intravenous administration of a lethal dose of sodium pentobarbital (Dolethal®, Vetoquinol, Spain) 2 weeks later for fluke recovery and counting. Afterwards, the in vivo efficacy of ABZ was calculated as the percentage of adult worm reduction compared with the untreated control. Additionally, the number of eggs per gram of feces (EPG) was estimated on the treatment day (mentioned as day 0) and 14 days later to determine drug efficacy by means of the fecal egg count reduction test (FECRT).
During the necropsy, gallbladders from sheep belonging to the untreated group were taken to collect the eggs and carry out the in vitro EHT, while flukes collected from livers were used to conduct the adult viability test (AVT).
Those BZDs with an activity higher than 80% at a concentration of 10 µM were also screened on eggs and adults from the ABZ resistant isolate.
as §1, §2

Fasciola hepatica eggs = system: Fasciola hepatica eggs; set-up: method as in PMID 19560276; conditions: in vitro; other studies; cited from earlier work
[4] = system: murine intestinal organoids; test: Intestinal tolerability assay on murine intestinal organoids; assay type: cell-based, mouse
Procedure: The murine intestinal organoid cultures were prepared following Stemcell Technologies™ protocols (https://www.stemcell.com/intestinal-epithelial-organoid-culture-with-intesticult-organoid-growth-medium-mouse-lp.html#protocols). Small intestine sections from C57BL/6 mice were excised, washed with ice-cold PBS, minced, and 2 mm segments were washed extensively. The segments were treated with Gentle Cell Dissociation Reagent (Stemcell Technologies™, Canada), resuspended in ice-cold PBS with 0.1% BSA and filtered. This process was repeated four times, resulting in four fractions. Cells from each fraction were centrifuged, washed, and resuspended in ice-cold DMEM/F12 supplemented with glutamine and HEPES 15 mM. Each fraction was mixed with Geltrex GFR LDEV-free (Gibco, Thermo Fisher Scientific, USA) and IntestiCult™ Organoid Grow Medium Mouse (Stemcell Technologies™, Canada), added to a 24-well plate and incubated at 37 °C for 10 min for matrix polymerization. The organoids were cultured in IntestiCult™ Organoid Grow Medium Mouse, with medium changes every 2 days and splitting after 7 days.
For intestinal tolerability assays, selected hit compounds were tested in mouse intestinal organoids at 25 and 50 µM final concentrations. The protocol, based on a previous work, involved the addition of Gentle Cell Dissociation Reagent (Stemcell Technologies™, Canada) on matrix domes, the disruption of the matrix, and the incubation the suspension. After centrifugation, cells were resuspended in DMEM/F12 supplemented with glutamine and HEPES 15 mM and centrifugated again. The pellet was resuspended in a mix of Geltrex GFR LDEV-free and IntestiCult™ Organoid Grow Medium Mouse. The mix was plated in 384-well plates, and after 4 days, mature organoids were exposed to the compounds. The positive control was hydrogen peroxide (0.15% v/v), and the negative control was DMSO (0.2%). Viability after 72 h was assessed using the alamarBlue assay.

HepG2 cells = test: Cytotoxicity assay, alamarBlue; assay type: cell-based, human
Procedure: The effect of the BZDs on cell viability was assessed on a human hepatocarcinoma HepG2 (ATCC® HB-8065™, USA) cell line. Only compounds screened at a concentration of 10 µM were evaluated. The detailed protocol is described in a previous study carried out by our research group. Briefly, 10,000 cells were seeded on 96-well plates and incubated with different concentrations of the compounds ranging from 1 to 100 µM at 37 °C and 5% CO2. After 72 h of exposure, viability of the cells was assessed using the alamarBlue (Fisher Scientific®, Spain) staining method according to the manufacturer’s recommendations.
The data are represented as mean ± standard error of media (SEM).

[5] = system: Teladorsagia circumcincta eggs; conditions: read-out: 50% inhibitory concentration (IC50) in eggs by the EHT; T. circumcincta eggs; type I BZDs; cited from earlier work
[6] = system: Heligmosomoides polygyrus adults; set-up: method as in PMID 35804427; conditions: 10 µM; cited from earlier work
Trichuris muris adults = system: Trichuris muris adults; set-up: method as in PMID 35804427; conditions: 10 µM; cited from earlier work

CCCSc1ccc2nc(NC(=O)OC)[nH]c2c1 [ABZ, albendazole, reference compound]
% Ovicidal activity ([1]; ABZ at discriminant dose (DD) 0.5 µM): 99.1% and 98% | % Ovicidal activity ([1]; ABZ at discriminant dose (DD) 0.5 µM, listed as ABZ (DD)): 99.01 ± 00.37% and 98.55 ± 00.41% | reduction in the number of eggs in feces (FECRT) ([2]; day 0 vs day 14): 0% | survival rate of the adult flukes ([2]; necropsy 2 weeks after treatment): 96.7% | % Ovicidal activity resistant isolate [3]: 36.5% | % Ovicidal activity resistant isolate ([3]; listed as ABZ (DD)): 36.46 ± 02.36% | Lowest concentration able to reduce egg hatching (Fasciola hepatica eggs): 0.05 µM

COc1ccc(-c2nc3cc(C)ccc3[nH]2)cc1 [BZD04]
% Ovicidal activity ([1]; 10 µM, mean ± SEM): 64.27 ± 10.16% | % Ovicidal activity ([1]; 50 µM, mean ± SEM): 99.57 ± 0.43% | % Ovicidal activity ([1]; 50 µM, mean ± SEM, listed as BZD-04): higher than 80% | % Viability in organoids ([4]; 50 µM): 10.50%

COc1ccc(-c2nc3cc(Cl)ccc3[nH]2)cc1 [BZD08]
% Ovicidal activity ([1]; 10 µM, mean ± SEM): 55.33 ± 05.81% | % Ovicidal activity ([1]; 10 µM, mean ± SEM, listed as BZD-08): around 50% | % Ovicidal activity ([1]; 50 µM, mean ± SEM): 98.08 ± 1.06% | % Ovicidal activity ([1]; 50 µM, mean ± SEM, listed as BZD-08): higher than 80% | CC50 (HepG2 cells): > 50 µM | % Viability in organoids ([4]; 25 µM): 69.30% | % Viability in organoids ([4]; 50 µM): 47.30%

Clc1ccc(-c2nc3cc(Cl)ccc3[nH]2)cc1 [BZD09]
% Ovicidal activity ([1]; 50 µM, mean ± SEM): 04.96 ± 1.22% | IC50 [5]: 6 µM | Inhibition of motility of Heligmosomoides polygyrus adults [6]: effectively inhibited the motility

O=[N+]([O-])c1ccc2[nH]c(-c3ccc(Cl)cc3)nc2c1 [BZD15]
Inhibition of Trichuris muris adult motility (Trichuris muris adults): inhibited Trichuris muris adult motility | % Ovicidal activity ([1]; 50 µM, mean ± SEM): 24.32 ± 10.58%

Cc1ccc2[nH]c(NCc3ccccc3)nc2c1 [BZD27]
% Ovicidal activity ([1]; 10 µM, mean ± SEM): 44.65 ± 07.46% | % Ovicidal activity ([1]; 10 µM, mean ± SEM, listed as BZD-27): around 50% | % Ovicidal activity ([1]; 50 µM, mean ± SEM): 95.92 ± 1.99% | % Ovicidal activity ([1]; 50 µM, mean ± SEM, listed as BZD-27): higher than 80% | % Viability in organoids ([4]; 25 µM, 72 h): 54.10% | % Viability in organoids ([4]; 50 µM, 72 h): 49.70%

Cc1ccc2[nH]c(NCc3ccco3)nc2c1 [BZD30]
% Ovicidal activity ([1]; 10 µM, mean ± SEM): 52.41 ± 01.02% | % Ovicidal activity ([1]; 10 µM, mean ± SEM, listed as BZD-30): around 50% | % Ovicidal activity ([1]; 50 µM, mean ± SEM): 100.00 ± 0.00% | % Ovicidal activity ([1]; 50 µM, mean ± SEM, listed as BZD-30): higher than 80% | CC50 (HepG2 cells; 72 h exposure, alamarBlue, read-out: CC50 Hep-G2): > 50 µM | % Viability in organoids ([4]; 25 µM, 72 h): 62.50% | % Viability in organoids ([4]; 50 µM, 72 h): 54.00%
